Data reported in patent publication US10793601B2, “Therapeutic spalt-like transcription factor 4 (SALL4) peptide” (National University of Singapore, priority 2016, dated 2020).

Tests used:
[1] = Plasma stability by LC-MS/MS
Method: PEN-FFW was incubated with human plasma (pH7.4) at 37° C. over a 24 hour period (5 timepoints). Incubations were performed at a concentration of 1 μM (final DMSO concentration 2.5%). Reactions were terminated at 0, 5, 10, 15, 30 min, or 0, 1, 2, 4 and 24 hour, by addition of 2 volumes of methanol containing 1% Formic acid. The samples were centrifuged (2500 rpm, 45 min, 4° C.) and the supernatants diluted with 2 volumes of 0.2% Formic acid (aq) (containing Metoprolol (internal standard)). […] The percentage of parent peptide remaining at each time point relative to the 0 min sample was calculated from LC-MS/MS peak area ratios (compound peak area/internal standard peak area).

PLC8024 tumor xenografts = experiment: PLC8024 xenograft (Sorafenib-resistant HCC); assay type: in vivo, mice
Method: FIGS. 9A-9E. Clinical significance of PEN-FFW compared to Sorafenib. FIG. 9A: PEN-FFW treated SNU398 tumor xenografts were compared to that of Sorafenib treated xenografts. FIG. 9B: PEN-FFW treated PLC8024 tumor xenografts were compared to that of Sorafenib treated xenografts. Mice body weight was measured to access toxicity of various peptides. FIG. 9C: Body weight of mice at day 17. FIG. 9D: Differences of body weight compared to day 0 (As indicated by the arrow in far left of FIG. 7A). FIG. 9E: Body weight of mice at day 19th in the experiment shown in FIG. 9A comparing effect of Sorafenib and PEN-FFW. Data represent mean±s.d. (n=5).
Clinical significance of PEN-FFW was studied in vivo by benchmarking against current therapy using Sorafenib. PEN-FFW treated SNU398 tumor xenografts were compared to that of Sorafenib treated xenografts (FIG. 9A). […] Potential therapeutic effect of PEN-FFW in HCC patients that are refractory to Sorafenib treatment was studied also studied in vivo. using a HCC cell line, PLC8024 which is SALL4 positive, CD133+ and is both chemo- and radio-resistant (Li et al., BMC Cancer 2016, 16, 15; Ma et al., Oncogene 2008, 27: 1749-1758), for the xenograft study.

RBBp4 [2] = target: T1, RBBp4 (Homo sapiens, UniProt Q09028); experiment: Fluorescence polarization (FP) competition with FITC-labelled SALL4 WT peptide; assay type: binding; details: for IC50: displacement of FITC-SALL4 WT peptide from RBBp4
T1 construct: purchased SinoBiological
Method: (§1) FIGS. 3A-3E. Key residues involved in SALL4 (1-12)-RBBp4 binding. […] The difference in the binding free energy (ΔΔGbind) of the alanine mutants (ΔGmutant, Ala7 was mutated to glycine) and wild type (ΔGwild type) was calculated (ΔΔGbind=ΔGmutant−ΔGwild type). ΔΔGbind was tabulated (left) and plotted in a bar chart (right). […] Mutated residues are highlighted in red. The IC50 of each peptide, including WT, was determined by Fluorescence Polarization (FP). Different concentrations of each peptide were titrated into a mixture of 0.04 μM RBBp4 and 0.01 μM of C-labelled FITC-SALL4 WT peptide. Polarization was measured in mP. […] Pep-1 carrier was added to the peptide to facilitate cellular penetration of the peptides.
Peptides were titrated into a master mix of 0.045 μM RBBp4 and […] C-terminal FITC-labelled WT peptide (synthesized by Thermo Scientific). Reactions were incubated at room temperature before the plate was read with an Envision instrument (Perkin Elmer). IC50 values of peptides were determined using Prism (GraphPad).

PTEN = PTEN transcript level by quantitative real-time PCR in SNU398 cells; assay type: cell-based; details: Q-PCR
SNU398 cells = experiment: Cell viability assay in SNU398 cells; assay type: cell-based; details: SNU398, Pep-1 carrier added
Method: as §1
FIGS. 5A-5B. Development of a potent therapeutic peptide FFW.
SNU398 was grown in RPMI supplemented with 10% fetal bovine serum (FBS) at 37° C. in a humidified atmosphere of 5% CO2. 3000 cells were seeded in each well of a 96 well plate with 100 μL of medium. Before peptide treatment, cells were washed twice with PBS and treated with different concentrations of peptide in OPTIMEM (LifeTech). Media was added after 4 hrs of incubation at 37° C., and cells incubated for another 68 hrs. Tetrazolium (CellTiter96 AQueous One Solution Cell Proliferation Assay, Promega) was added after 72 hrs incubation with the peptides, and the plate was read at a plate reader at 490 nm after 1 hr of incubation in the dark at 37° C.

RBBp4 [3] = target: T1, RBBp4; experiment: Isothermal titration calorimetry (ITC) of SALL4 peptide against RBBp4; details: 25° C., 1:1 binding model
Method: (§2) FIGS. 1A-1B. Binding affinity of WT SALL4 (1-12 aa) to RBBp4.
ITC was carried out with an Auto-iTC200 instrument from Microcal Inc. at 25° C. […] of RBBp4 in 50 mM Tris and 100 mM NaCl at pH 7.4 was loaded into the ITC cell. Sal14 peptide at […] was auto-loaded into the syringe. The titration was carried out with 18 injections of 2.4 μl, performed over a period of 30 min with stirring at 1000 rpm. The ITC data was analysed using Origin software from Microcal.

RBBp4 [4] = target: T1, RBBp4; experiment: Surface plasmon resonance (SPR), RBBp4 immobilised on CM5 chip; assay type: binding
Method: as §2
SPR studies were performed using a Biacore T200 biosensor (GE Healthsciences). ˜12,000 resonance units (RU) of RBBp4 were immobilised by amine coupling to the carboxymethylated dextran matrix of a Series S CM5 chip (Biacore, GE Healthcare). Multi cycle kinetics analysis was performed at 25° C. through seven injections of SALL4 peptide (0.5 μM-8 μM). The association time and flow rate were set at 60 s and 30 μl/min respectively. The sensograms obtained were of good quality and kinetic rate constants were determined by curve fitting.

SNU398 = experiment: RNA-seq transcriptome analysis of treated SNU398; assay type: cell-based; details: for log2 fd versus Contr (PEN + Mut), ADORA2A-AS1: gene ADORA2A-AS1, SNU398, 8 hrs; for log2 fd versus Contr (PEN + Mut), AVPR2: gene AVPR2, SNU398, 8 hrs; for log2 fd versus Contr (PEN + Mut), CSAD: gene CSAD; for log2 fd versus Contr (PEN + Mut), CSAD / log2 fd versus Contr (PEN + Mut), SSPO: SNU398, 8 hrs; for log2 fd versus Contr (PEN + Mut), DNASE1L2: gene DNASE1L2, SNU398, 8 hrs; for log2 fd versus Contr (PEN + Mut), LOC619207: gene LOC619207, SNU398, 8 hrs; for log2 fd versus Contr (PEN + Mut), NEIL1: gene NEIL1, SNU398, 8 hrs; for log2 fd versus Contr (PEN + Mut), PRKXP1: gene PRKXP1, SNU398, 8 hrs; for log2 fd versus Contr (PEN + Mut), SSPO: gene SSPO
Method: SNU398 were treated PEN, PEN-MUT, PEN-WT & PEN-FFW for 8 hrs and paired-end RNA-seq was performed for the treated samples. RNA-seq reads of each sample were mapped to hg19 using the STAR aligner. Normalization between the samples was based on the proportionality of the numbers of the mapped reads. The expression fold change of a transcript was obtained using linear regression of the reads between the two samples cross all exons. Differential expression between two samples was selected by using the fold change cut off of 2. Hierarchical clustering was performed based on average linkage to generate the clustering tree as well as heat maps. For identification of enriched gene sets or pathways, Gene Set Enrichment Analysis (GSEA) was performed based on the normalized data and using the GSEA tool (broad.mit.edu/gsea/) with msigdb.v5.0.

T1 sequence (Q09028 whole entry): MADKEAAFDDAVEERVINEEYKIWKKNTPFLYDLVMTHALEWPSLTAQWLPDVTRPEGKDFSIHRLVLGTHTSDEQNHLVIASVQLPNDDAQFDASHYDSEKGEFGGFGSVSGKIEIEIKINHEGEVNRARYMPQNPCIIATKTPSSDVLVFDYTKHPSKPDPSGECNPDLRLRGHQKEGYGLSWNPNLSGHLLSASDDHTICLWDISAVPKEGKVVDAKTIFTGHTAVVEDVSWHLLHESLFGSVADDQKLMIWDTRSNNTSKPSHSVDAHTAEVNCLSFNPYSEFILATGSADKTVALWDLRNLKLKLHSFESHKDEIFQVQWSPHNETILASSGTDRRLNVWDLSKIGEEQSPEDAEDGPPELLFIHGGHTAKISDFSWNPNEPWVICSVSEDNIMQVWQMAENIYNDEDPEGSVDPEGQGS

For `CC1CC(OC(=O)C(O)c2ccccc2)CC(C)(C)N1C` (stereo not shown) [Eucatropine], the “peptide/compound remaining in the plasma” value ([1]; human plasma, 37° C., 1 μM, after 30 min) was 40% and the remaining at 0.5 h, 1 μM ([1]; human, pH 7.4) was 40%.

For `CNC(=O)c1cc(Oc2ccc(NC(=O)Nc3ccc(Cl)c(C(F)(F)F)c3)cc2)ccn1` [Sorafenib, reference compound], the “tumor growth as compared to the control group” value (PLC8024 tumor xenografts) was 1.5 fold.

With Ac-ARKQAKPQHI-NH2 [Peptide 8] the IC50 (RBBp4 [2]) was > 20 µM.

Ac-KRKQAKPQHI-NH2 [Peptide 17] showed an IC50 (RBBp4 [2]) of 3.8 ± 0.5 µM.

For “Ac-MSARAQAKPQHI-NH2 (N-terminus and C-terminus assumed) [MUT]”, the “increase in PTEN expression compared to untreated cells” value (PTEN) was “no significant change” and the “effect on cell number” value (SNU398 cells) was “does not”.

For Ac-MSRRKQAKPQ-NH2 [Peptide 3], the IC50 (RBBp4 [2]) was 0.8 µM.

For “Ac-MSRRKQAKPQHI-NH2 [Peptide 1, reference compound]”, the Kd (RBBp4 [3]) was 1.04 ± 0.06 µM, the “increase in PTEN expression compared to untreated cells” value (PTEN) was 3 fold and the IC50 (RBBp4 [2]) was 1.04 ± 0.2 µM. The koff (RBBp4 [4]) was 0.026 ± 0.00045 s⁻¹, the kon (RBBp4 [4]) was 16800 ± 460 M⁻¹ s⁻¹ and the “log2 fd versus Contr (PEN + Mut), ADORA2A-AS1” value (SNU398) was 1.05. For the same compound, the “log2 fd versus Contr (PEN + Mut), AVPR2” value (SNU398) was 0.11, the “log2 fd versus Contr (PEN + Mut), CSAD” value (SNU398) was 0.25 and the “log2 fd versus Contr (PEN + Mut), DNASE1L2” value (SNU398) was 0.42. For the same compound, the “log2 fd versus Contr (PEN + Mut), LOC619207” value (SNU398) was 0.36, the “log2 fd versus Contr (PEN + Mut), NEIL1” value (SNU398) was 0.30 and the “log2 fd versus Contr (PEN + Mut), PRKXP1” value (SNU398) was 0.62. The “log2 fd versus Contr (PEN + Mut), SSPO” value (SNU398) was 0.99 and the “effect on cell number” value (SNU398 cells) was “exerts an inhibitory effect on cell number”.

In the case of Ac-RAKQAKPQHI-NH2 [Peptide 9], the IC50 (RBBp4 [2]) is reported as > 20 µM.

In the case of Ac-RKQAKPQHI-NH2 [Peptide 7], the IC50 (RBBp4 [2]) is reported as > 20 µM.

In the case of Ac-RRAQAKPQHI-NH2 [Peptide 10], the IC50 (RBBp4 [2]) is reported as > 20 µM.

With Ac-RRKFAKFQWI-NH2 [Peptide 46] the IC50 (RBBp4 [2]) was 0.023 µM, the “increase in affinity as compared with the original 12-residue WT peptide” value (RBBp4 [2]; ratio of FP IC50 values) was > 56 fold and the “log2 fd versus Contr (PEN + Mut), ADORA2A-AS1” value (SNU398) was 2.17. For the same compound, the “log2 fd versus Contr (PEN + Mut), AVPR2” value (SNU398) was 1.53, the “log2 fd versus Contr (PEN + Mut), CSAD” value (SNU398) was 1.09 and the “log2 fd versus Contr (PEN + Mut), DNASE1L2” value (SNU398) was 1.11. For the same compound, the “log2 fd versus Contr (PEN + Mut), LOC619207” value (SNU398) was 1.33, the “log2 fd versus Contr (PEN + Mut), NEIL1” value (SNU398) was 1.11 and the “log2 fd versus Contr (PEN + Mut), PRKXP1” value (SNU398) was 2.12. For the same compound, the “log2 fd versus Contr (PEN + Mut), SSPO” value (SNU398) was 2.40.

For Ac-RRKFAKPQHI-NH2 [Peptide 24], the “enhancement in binding affinity over that of peptide 6” value (RBBp4 [2]; ratio of FP IC50 values) was 7 fold.

Ac-RRKLAKPQHI-NH2 [Peptide 23] gave an IC50 (RBBp4 [2]) of 0.27 ± 0.1 µM.
